Source: ChEMBL document CHEMBL1128022, “Potent and selective inhibitors of gelatinase-A 2. carboxylic and phosphonic acid derivatives” (Bioorg Med Chem Lett, 1994)

Columns and labels:
Interstitial collagenase = target: T1, Interstitial collagenase (Homo sapiens, UniProt P03956); test: Inhibition of the Collagenase enzyme was determined from purified NSO cells.
T1 sequence (P03956 whole entry): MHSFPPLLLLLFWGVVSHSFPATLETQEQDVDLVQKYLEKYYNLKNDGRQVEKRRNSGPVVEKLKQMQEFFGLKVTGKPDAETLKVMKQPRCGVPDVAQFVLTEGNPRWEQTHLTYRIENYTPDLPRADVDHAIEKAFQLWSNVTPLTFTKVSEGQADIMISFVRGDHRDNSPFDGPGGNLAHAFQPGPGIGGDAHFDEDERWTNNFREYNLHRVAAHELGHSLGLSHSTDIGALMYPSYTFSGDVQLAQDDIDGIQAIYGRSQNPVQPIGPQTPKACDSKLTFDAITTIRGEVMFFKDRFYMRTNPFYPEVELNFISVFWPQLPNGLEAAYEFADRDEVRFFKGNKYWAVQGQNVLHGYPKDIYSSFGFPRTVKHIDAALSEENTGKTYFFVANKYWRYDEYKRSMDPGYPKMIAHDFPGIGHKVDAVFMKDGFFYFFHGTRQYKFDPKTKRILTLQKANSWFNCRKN

[1] = target: 72 kDa type IV collagenase (Homo sapiens, UniProt P08253); test: Inhibition of the Gelatinase-A enzyme was determined from purified NSO cells.
Stromelysin-1 = Stromelysin-1 (Homo sapiens, UniProt P08254); test: Inhibition of the Stromelysin enzyme was determined from purified NSO cells.
Sequence of Stromelysin-1 (P08254 whole entry): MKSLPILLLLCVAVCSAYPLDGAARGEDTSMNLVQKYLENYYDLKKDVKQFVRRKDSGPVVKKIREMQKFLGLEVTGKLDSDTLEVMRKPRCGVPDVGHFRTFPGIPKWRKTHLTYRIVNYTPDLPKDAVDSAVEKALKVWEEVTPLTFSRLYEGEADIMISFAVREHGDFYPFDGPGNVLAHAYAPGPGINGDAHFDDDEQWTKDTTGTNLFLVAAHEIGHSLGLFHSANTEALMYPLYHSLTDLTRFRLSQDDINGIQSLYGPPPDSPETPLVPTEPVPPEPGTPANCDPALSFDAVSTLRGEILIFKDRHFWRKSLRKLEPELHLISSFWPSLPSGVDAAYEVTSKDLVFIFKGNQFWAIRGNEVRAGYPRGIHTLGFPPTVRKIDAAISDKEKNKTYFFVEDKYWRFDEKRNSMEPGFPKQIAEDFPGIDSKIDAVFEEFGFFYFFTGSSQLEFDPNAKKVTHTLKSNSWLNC

Sequence of 72 kDa type IV collagenase (P08253 whole entry): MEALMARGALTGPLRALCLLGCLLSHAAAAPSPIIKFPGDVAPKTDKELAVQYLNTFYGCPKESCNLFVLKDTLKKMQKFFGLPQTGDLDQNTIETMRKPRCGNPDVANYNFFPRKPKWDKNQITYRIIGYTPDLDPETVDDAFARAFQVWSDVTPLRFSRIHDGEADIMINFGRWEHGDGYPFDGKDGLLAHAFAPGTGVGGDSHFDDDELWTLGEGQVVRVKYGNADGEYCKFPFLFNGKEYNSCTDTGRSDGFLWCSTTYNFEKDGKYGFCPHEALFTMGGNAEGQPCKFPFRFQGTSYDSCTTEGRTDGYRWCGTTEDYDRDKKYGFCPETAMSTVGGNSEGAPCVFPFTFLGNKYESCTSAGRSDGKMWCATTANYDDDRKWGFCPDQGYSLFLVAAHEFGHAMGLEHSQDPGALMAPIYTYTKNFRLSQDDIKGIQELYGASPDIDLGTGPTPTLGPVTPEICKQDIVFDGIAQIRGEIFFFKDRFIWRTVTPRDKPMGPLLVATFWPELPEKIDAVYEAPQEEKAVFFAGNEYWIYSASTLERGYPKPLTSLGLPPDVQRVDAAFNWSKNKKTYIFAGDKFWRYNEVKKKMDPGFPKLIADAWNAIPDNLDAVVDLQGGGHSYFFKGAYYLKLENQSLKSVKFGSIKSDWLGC

SMILES	Ki (Interstitial collagenase) [nM]	Ki [1] [nM]	Ki (Stromelysin-1) [nM]
Cc1ccc(CCC[C@H](CC(=O)O)C(=O)N[C@@H](CC2CCCCC2)C(=O)NCCc2ccccc2)cc1	22100	1	472
NS(=O)(=O)c1ccc(CCNC(=O)[C@H](CC2CCCCC2)NC(=O)[C@H](CCCc2ccc(Cl)cc2)CC(=O)O)cc1	55000	1.03	358
COC(=O)CCNC(=O)[C@H](CC1CCCCC1)NC(=O)[C@H](CCCc1ccc(C)cc1)CC(=O)O	41400	1.17	353
O=C(N[C@@H](CC1CCCCC1)C(=O)NCCN1CCOCC1)[C@H](CCCc1ccccc1)CP(=O)(O)O	100000	812	8400
COc1ccc(CCC[C@H](CC(=O)O)C(=O)N[C@@H](CC2CCCCC2)C(=O)NCCc2ccc(S(N)(=O)=O)cc2)cc1	10000	1.83	1110
Cc1ccc(CCC[C@H](CC(=O)O)C(=O)N[C@@H](CC2CCCCC2)C(=O)NCCc2ccc(S(N)(=O)=O)cc2)cc1	47800	0.9	384
NC(=O)CCCNC(=O)[C@H](CC1CCCCC1)NC(=O)[C@H](CCCc1ccccc1)CC(=O)O	28400	3.06	1060
O=C(O)CCNC(=O)[C@H](CC1CCCCC1)NC(=O)[C@H](CCCc1ccccc1)CP(=O)(O)O	22100	46.5	952
O=C(C[C@@H](CCCc1ccccc1)C(=O)N[C@@H](CC1CCCCC1)C(=O)NCCc1ccccc1)NO		0.06	
Cc1ccc(CCC[C@H](CP(=O)(O)O)C(=O)N[C@@H](CC2CCCCC2)C(=O)NCCc2ccccc2)cc1 (stereo in doubt; form 1)	100000	366	21200
Cc1ccc(CCC[C@H](CC(=O)O)C(=O)N[C@@H](CC2CCCCC2)C(=O)NCCC(=O)O)cc1	100000	3.82	321
O=C(N[C@@H](CC1CCCCC1)C(=O)NCCc1ccccc1)[C@H](CCCc1ccccc1)CP(=O)(O)O	25000	18.9	701
CC(C)Cc1ccc(CCC[C@H](CC(=O)O)C(=O)N[C@@H](CC2CCCCC2)C(=O)NCCc2ccccc2)cc1	> 10000	157	> 10000
Cc1ccc(CCC[C@H](CP(=O)(O)O)C(=O)N[C@@H](CC2CCCCC2)C(=O)NCCc2ccccc2)cc1 (stereo in doubt; form 2)	17000	2.5	277
Cc1ccc(CCC[C@H](CC(=O)O)C(=O)N[C@@H](CC2CCCCC2)C(=O)NCCCCN2CCOCC2)cc1	55000	10.3	358
O=C(O)C[C@H](CCCc1ccccc1)C(=O)N[C@@H](CC1CCCCC1)C(=O)NCCc1ccccc1			20000
NS(=O)(=O)c1ccc(CCNC(=O)[C@H](CC2CCCCC2)NC(=O)[C@H](CCCc2ccccc2)CC(=O)O)cc1	40200	6.4	952
NC(=O)[C@H](CC1CCCCC1)NC(=O)[C@H](CCCc1ccccc1)CC(=O)O	100000	123	3120
